Assay results reported in patent publication US11724998B2, “PXR agonists and uses thereof for gut barrier dysfunction treatment and prevention” (Albert Einstein College of Medicine, priority 2017, dated 2023).
Where “and” joins values, the source holds several entries; their conditions need not be identical. Equal values may be shown once. Read-outs that look alike come from different tables or passages of the source. Each block holds one compound with its values, some of them ahead of it.

Columns and labels:
[1] = biological target: T1, PXR (Homo sapiens, UniProt O75469); assay: PXR activation, HepG2 reporter assay; type: cell-based; parameters: host or cells: HepG2
T1 sequence (O75469 1-434): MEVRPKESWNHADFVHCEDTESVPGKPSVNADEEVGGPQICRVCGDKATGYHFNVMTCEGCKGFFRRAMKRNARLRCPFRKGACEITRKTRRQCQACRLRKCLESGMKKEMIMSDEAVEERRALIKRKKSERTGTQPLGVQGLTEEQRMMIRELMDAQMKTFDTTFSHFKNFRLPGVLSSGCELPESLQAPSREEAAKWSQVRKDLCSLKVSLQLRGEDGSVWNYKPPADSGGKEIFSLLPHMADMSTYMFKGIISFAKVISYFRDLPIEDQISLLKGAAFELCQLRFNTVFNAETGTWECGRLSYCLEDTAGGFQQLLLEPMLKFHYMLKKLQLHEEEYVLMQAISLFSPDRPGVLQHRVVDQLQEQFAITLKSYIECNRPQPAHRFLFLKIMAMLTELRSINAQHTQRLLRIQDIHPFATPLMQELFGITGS
From the text: (§1) Two molecules that were readily available (Ryan Scientific: FKK999 & BAS451) were purchased and tested in vitro for PXR activation using a HepG2 reporter assay. […] […]. […] In general, reporter cell lines are efficient ways to screen for PXR ligands (72). In the LS180 intestinal cell line, the PXR activation assay involves a transient transfection system using a specific PXR plasmid and reporter plasmid (CVmax % 11.2+2; CVmid % 10.8+0.1.4; Signal Window 6.2+1.1; Z′ factor 0.51+0.005).

[2] = tested on: RXR; assay: RXR ligand displacement (radiolabeled 9-cis-retinoic acid); type: binding; settings: displacement of radiolabeled 9-cis-retinoic acid
Procedure: (§2) FIG. 6A-6E. Activation and inhibition studies with different FKK compounds. (A) PXR activation, LS180 cells (upper), and PXR inhibition, LS180 cells, co-incubation with RIF (lower). (B) AhR activation, AZ-AHR cells (upper), and AhR inhibition, AZ-AHR cells, co-incubation with TCDD (lower). (C) GR activation, AZ-GR cells (upper), and VDR activation, IZ-VDRE cells (lower). (D) TR activation, PZ-GR cells (upper), and AR activation, AIZ-AR cells (lower). (E) Displacement of radiolabeled 9-cis-retinoic acid (RA) by FKK compounds.
(§3) All the synthesized compounds and intermediates were tested for their potential to activate PXR and/or AhR via luciferase assays. The PXR activation assays were performed by co-transfecting full-length expressing human PXR plasmid (91) and p3A4 luciferase reporter (92) in LS180 or Caco-2 cells. AhR activation conducted using stably co-transfected HepG2 reporter cells as previously described (93). […] With the exception of FKK6, there was no significant inhibition of TCDD-induced AhR activation. […] Independent verification of AhR activity of randomly selected compounds—FKK 5, 6 and 9—was performed in a separate laboratory (GHP). Nuclear receptor selectivity was assessed for FKK compounds for GR, ADR, TR and AR using cell-based luciferase assays previously described (93-102). […]

[3] = tested on: AhR target gene (CYP1A1); type: cell-based, human
From the text: (§4) FIG. 2A-2F. […] Histogram, mean±SD.
FIG. 7A-7B. Effects of FKK compounds on CYP3A4, MDR1 and CYP1A1 gene expression in LS180 cells. (A) mRNA expression. (B) mRNA expression in wt-PXR transfected cells.

[4] = tested on: PXR target genes (CYP3A4, MDR1)
[5] = tested on: AhR target genes (CYP1A1 and CYP1A2); assay: AhR target gene mRNA expression in HepaRG cells (control, AhR-KO)
[6] = tested on: AhR target genes (CYP1A1 and CYP1A2); type: cell-based, human
From the text: as §4

[7] = biological target: T2, AhR (Homo sapiens, UniProt P35869); assay: AhR activation, AZ-AHR (stably co-transfected HepG2) reporter cells; type: cell-based; parameters: endogenous in cells; host or cells: AZ-AHR (HepG2); settings: to a much lesser extent than FKK 2 and 9; FIG. 6B
T2 sequence (P35869 11-848): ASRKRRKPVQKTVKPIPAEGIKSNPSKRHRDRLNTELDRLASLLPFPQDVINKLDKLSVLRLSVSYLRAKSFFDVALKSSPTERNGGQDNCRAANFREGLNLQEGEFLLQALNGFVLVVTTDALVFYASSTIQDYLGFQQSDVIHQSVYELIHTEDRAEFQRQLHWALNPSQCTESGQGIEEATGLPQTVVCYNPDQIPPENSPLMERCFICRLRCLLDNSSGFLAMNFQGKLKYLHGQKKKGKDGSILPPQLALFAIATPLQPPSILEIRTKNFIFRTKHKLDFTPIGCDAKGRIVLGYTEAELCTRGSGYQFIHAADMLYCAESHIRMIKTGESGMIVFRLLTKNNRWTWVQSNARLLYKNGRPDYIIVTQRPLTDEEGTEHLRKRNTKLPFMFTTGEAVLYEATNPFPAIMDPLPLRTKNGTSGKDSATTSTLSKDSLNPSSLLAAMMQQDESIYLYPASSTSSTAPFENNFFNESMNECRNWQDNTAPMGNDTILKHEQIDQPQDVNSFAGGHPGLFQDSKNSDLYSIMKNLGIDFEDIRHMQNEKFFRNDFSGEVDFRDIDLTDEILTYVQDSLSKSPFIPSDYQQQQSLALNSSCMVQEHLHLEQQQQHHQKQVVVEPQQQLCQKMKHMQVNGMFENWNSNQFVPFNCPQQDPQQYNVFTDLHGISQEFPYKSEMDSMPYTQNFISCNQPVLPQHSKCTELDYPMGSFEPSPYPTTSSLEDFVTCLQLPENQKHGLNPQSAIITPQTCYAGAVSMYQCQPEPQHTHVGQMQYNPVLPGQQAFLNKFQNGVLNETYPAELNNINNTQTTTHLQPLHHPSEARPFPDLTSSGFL
Procedure: as §2
(§5) All the synthesized compounds and intermediates were tested for their potential to activate PXR and/or AhR via luciferase assays. The PXR activation assays were performed by co-transfecting full-length expressing human PXR plasmid (91) and p3A4 luciferase reporter (92) in LS180 or Caco-2 cells. AhR activation conducted using stably co-transfected HepG2 reporter cells as previously described (93). […] With the exception of FKK6, there was no significant inhibition of TCDD-induced AhR activation. […] Independent verification of AhR activity of randomly selected compounds—FKK 5, 6 and 9—was performed in a separate laboratory (GHP). Nuclear receptor selectivity was assessed for FKK compounds for GR, ADR, TR and AR using cell-based luciferase assays previously described (93-102). There was no observed biologically significant (>2-fold) induction of nuclear receptor activity (FIG. 6C). RXR ligand displacement is only significant for FKK1 and FKK8 (FIG. 6D).

[8] = tested on: PXR target genes (CYP3A4, MDR1); assay: PXR target gene mRNA expression in plated human hepatocytes; settings: 10 μM, 24 h, FIG. 2
[9] = tested on: PXR occupancy of the target promoters; assay: Chromatin immunoprecipitation assay (ChIP); type: cell-based; settings: semi-quantitative PCR
Procedure: These assays were performed as previously published (27).

[10] = biological target: T1, PXR; assay: PXR activation (transactivation) luciferase assay in LS180 cells; type: cell-based; parameters: co-transfecting full-length expressing human PXR plasmid (91) and p3A4 luciferase reporter (92) in LS180 or Caco-2 cells; expressed in transfected cells; host or cells: LS180
Procedure: as §2, §1, §5

[11] = biological target: T2, AhR; assay: AhR inhibition, AZ-AHR cells, co-incubation with TCDD; type: cell-based; parameters: endogenous in cells; host or cells: AZ-AHR (HepG2); settings: read-out: inhibition of maximal induction by TCDD
Procedure: as §2, §3

[12] = tested on: PXR target genes (CYP3A4, MDR1); settings: human, 24 h, 10 μM
[13] = biological target: T1, PXR; assay: Isothermic titration calorimetry (ITC); type: binding; settings: FIG. 11
[14] = tested on: 468 kinases; assay: Kinase profiling, scanMAX (KINOMEscan) panel; type: binding; settings: 10 μM; for Number of Hits: 403 non-mutant kinases
Procedure: The kinase inhibition assays were conducted by DiscoverX on a platform assay by Ambit BioSciences as described previously (112, 113). FKK6 was screened at a single concentration of 10 μM in duplicate. The scanMAXSM assay panel measures 468 kinases (WorldWideWeb.discoverx.com/services/drug-discovery-development-services/kinase-profiling/kinomescan/scanmax). The assays measures a compound's ability to inhibit binding of a canonical ligand substrate, with 0% activity of control corresponding to full inhibition and 100% activity of control to no inhibition. […] Three different activity cut-offs were analyzed—S(35) or % activity of control <35; S(10) or % activity of control <10; and S(1) or % activity of control <1. To illustrate effect or lack of effect, an image of the entire family of kinases tested were grouped by families and S(35). The TREEspot Kinase dendrogram image was generated using TREEspot™ Software Tool and reprinted with permission from KINOMEscan®, a division of DiscoveRx Corporation, © DISCOVERX CORPORATION 2010.

[15] = biological target: T2, AhR; assay: AhR activation by IPA (assay not described); type: cell-based
From the text: IPA/Indoles can have weak (˜2 fold) but important effects on the activation of other nuclear receptors (e.g., CAR, LXR) (33). […] Some receptors, specifically CAR and LXR, can act to induce liver steatosis (79, 83-86) and hepatocarcinogenesis (CAR) (80, 84, 87-89) and thus, avoiding excessive activation of these nuclear receptors in the context of PXR activation would be important. […] CDK5 (along with CDK2) are important kinases that phosphorylate and inhibit PXR activation (90).

Compound: CC#CC(O)(c1ccncc1)c1cc2ccccc2n1S(=O)(=O)c1ccccc1 (stereo not shown) [FKK3]
AhR activation profile [7]: variable degrees of dose-dependent AhR activation

Compound: CC#CC(O)(c1ccncc1)c1cc2ccccc2n1COCC (stereo not shown) [FKK4]
AhR activation profile [7]: variable degrees of dose-dependent AhR activation

Compound: C#CCC(O)(c1ccncc1)c1cc2ccccc2n1S(=O)(=O)c1ccccc1 (stereo not shown) [FKK6]
CYP3A4 induction [8]: ~2.6 fold
MDR1 induction [8]: ~1.5 fold
PXR occupancy of the target promoters [9]: efficiently induces PXR occupancy
EC50 [10]: 0.88 µM
Emax ([10]; read-out: Emax/Emax[rifampicin, positive control]): 117%
inhibition at 10 µM [11]: ~25%
CYP3A4 induction [12]: ~10 fold
MDR1 induction [12]: > 6 fold
binding to human PXR [13]: efficient and direct binding
S(1-35)-scores ([14]; duplicate): 0
inhibitory effects on kinases ([14]; 468 kinases): lack of inhibitory effects of FKK6 on any kinase
Number of Hits ([14]; S(1), % activity of control <1): 0
Number of Hits ([14]; S(10), % activity of control <10): 0
Number of Hits ([14]; S(35), % activity of control <35): 0

Compound: O=S(=O)(c1ccccc1)n1c(C(O)(Cc2cc3ccccc3[nH]2)c2ccncc2)cc2ccccc21 (stereo not shown) [FKK7]
AhR activation profile [7]: variable degrees of dose-dependent AhR activation

Compound: OC(Cc1cc2ccccc2[nH]1)(c1ccncc1)c1cc2ccccc2[nH]1 (stereo not shown) [FKK10]
AhR activation profile [7]: variable degrees of dose-dependent AhR activation

Compound: Clc1cc2c(cc1Cl)Oc1cc(Cl)c(Cl)cc1O2 [TCDD]
CYP1A1 mRNA induction ([3]; PXR transfected LS180 cells, FIG. 7B): 1299.1 fold
CYP1A1 mRNA expression ([3]; un-transfected LS180 cells, FIG. 7A): 2347 fold and < 3000 fold
induction of CYP1A1 and CYP1A2 ([6]; primary human hepatocytes, FKK2 and FKK9 in 1 of 4 hepatocytes): > 5000 fold

Second part, led by results:

EC50 [1]: > 50 µM
Compound: Cc1[nH]c2ccccc2c1C(c1ccccc1)c1c(C)[nH]c2ccccc12 [BAS451]

RXR ligand displacement [2]: significant
CYP1A1 mRNA expression [3]: attenuated effects
CYP1A1 mRNA induction [3]: attenuated effects
CYP3A4 mRNA expression [4]: expression is reduced
Compound: O=S(=O)(c1ccccc1)n1c(C(O)c2ccncc2)cc2ccccc21 (stereo not shown) [FKK1]

induction of CYP1A1 and CYP1A2 [5]: completely diminished
induction of CYP1A1 and CYP1A2 ([6]; human, hepatocytes): > 100 fold
Compound: OC(c1ccncc1)(c1cc2ccccc2[nH]1)c1cc2ccccc2[nH]1 [FKK2]

induction of CYP1A1 and CYP1A2 [5]: completely diminished
induction of CYP1A1 and CYP1A2 ([6]; human, hepatocytes): > 100 fold
Compound: CCOCn1c(C(O)(Cc2cc3ccccc3[nH]2)c2ccncc2)cc2ccccc21 (stereo not shown) [FKK9]

CYP1A1 mRNA expression [3]: attenuated effects
CYP1A1 mRNA induction [3]: attenuated effects
CYP3A4 mRNA expression [4]: expression is reduced
CYP3A4 mRNA induction ([4]; human): > 2 fold
EC50 ([1]; HepG2 reporter assay, read-out: EC50, PXR activation): 5 µM
Compound: Cc1[nH]c2ccccc2c1C(c1c(C)[nH]c2ccccc12)c1c(C)[nH]c2ccccc12 [FKK999, reference compound]
AhR activation profile [7]: variable degrees of dose-dependent AhR activation

AhR activation [15]: does not activate AhR
Compound: O=C(O)CCc1c[nH]c2ccccc12 [IPA, indole-3-propionic acid, reference compound]
